We go through one compound from patent EP4729529A1, “PREPARATION OF PEPTIDE INHIBITOR OF INTERLEUKIN-23 RECEPTOR AND USE THEREOF” (Xizang Haisco Pharmaceutical Co., Ltd., priority 2023, dated 2024).

One data set addresses T1, IL-23α/IL-12β and IL-23R (Homo sapiens, UniProt Q5VWK5).
T1 construct: purchased ACRO ILR-H82F3 (IL-23R); ILB-H52W5 (IL-23α/IL-12β)
T1 sequence (Q5VWK5 24-353 limits assumed): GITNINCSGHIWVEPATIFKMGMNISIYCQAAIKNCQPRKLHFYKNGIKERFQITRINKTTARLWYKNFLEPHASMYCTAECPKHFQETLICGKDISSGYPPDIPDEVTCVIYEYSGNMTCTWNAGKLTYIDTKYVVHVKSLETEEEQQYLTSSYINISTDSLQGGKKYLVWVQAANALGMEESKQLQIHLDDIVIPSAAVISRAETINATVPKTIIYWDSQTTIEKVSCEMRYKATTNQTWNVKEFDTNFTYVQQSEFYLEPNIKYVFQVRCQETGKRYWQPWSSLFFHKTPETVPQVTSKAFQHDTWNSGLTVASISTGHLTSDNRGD
The data set can be described thus: IL-23α/IL-12β and IL-23R binding assay (TR-FRET/HTRF). To be noted: inhibition of the binding of IL-23α/IL-12β to IL-23R, TR-FRET; both proteins 0.3 nM. A digest of the protocol:
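TR-FRET with IL-23α/IL-12β and IL-23R each at 0.3 nM in PPI buffer; compound preincubated with IL-23α/IL-12β 60 min at 25°C, then IL-23R and Tb/d2 detection reagents added for 60 min. HTRF 665/620 ratio; IC50 by nonlinear regression.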
For orientation: TR-FRET usually uses a lanthanide donor and a delayed reading to cut background.

The target in data set [1] is (Homo sapiens, UniProt Q5VWK5). In words: IL-23-stimulated pSTAT3 detection assay in PBMCs (ELISA). In kind it is cell-based. To be noted: rhIL23 stimulation 30 minutes, read-out: pSTAT3 inhibition/IC50. How it is done: 3. IL-23-stimulated pSTAT3 detection assay in PBMCs
Cryopreserved human PBMCs were thawed, and seeded onto a plate previously covered with an anti-CD3 antibody at 1 × 10^6 cells/well. Then, an anti-CD28 antibody was added to the plate, and the cells were incubated at 37°C with 5% CO2 for 5 days. On Day 5, the cells were seeded onto a 96-well plate at a density of 100K cells/well after 4 hours of stimulation by FBS starvation. The diluted Compound was transferred into the 96-well cell culture plate, and the plate was incubated at 37°C with 5% CO2 for 1 hour. rhIL23 (R&D, 1290-IL) was added to the cell culture plate, and the plate was incubated at 37°C with 5% CO2 for 30 minutes. The cells in the wells were lysed on ice with a lysis buffer containing 1× PHOSstop solution for 30 minutes, and the plate was centrifuged at 1000 rpm for 1 minute. Then, the supernatant was transferred into a 96-well ELISA plate, and pSTAT3 ELISA assay was performed according to the instructions of the kit (CST, 7300CA). Absorbance values at […] were read on PHERAstar FSX (BMG LRBTECH). The inhibition rate of the compounds was assessed using the following formula, and IC50 values were obtained by fitting with Graphpad.
Calculation formula of inhibition rate: [formula] • where Data negative: mean of DMSO control group; and • Data positive: mean of non-IL23-stimulated group
The calculation formula of IC50 was as follows: Y = Bottom + (Top−Bottom)/(1+10^(∧)((LogIC50−X)*HillSlope)) [formula] • where X: concentration of compound; and • Y: inhibition rate of compound. Table 3. pSTAT3 inhibition

Data set [2] is described as follows: Test of stability in plasma, monkey. Type of data set: in vitro ADME. As to conditions: read-out: Residual rate% at 37°C for 6 h. The procedure: (§1) 5. Test of stability in plasma
(§2) In this experiment, plasmas of five species, including human, monkey, dog, rat, and mouse, were used to evaluate the stability in plasma of Compound 7.
(§3) A plasma sample was prepared at a concentration level of 1000 ng/mL, and dispensed into EP tubes at time points 0 h and 6 h. Acetonitrile solution containing an internal standard was added directly to the 0 h sample; and the 6 h sample was placed at 37°C for the corresponding time, and then added with an acetonitrile solution containing internal standard. The concentration of the test compound in the sample was measured by the LC-MS/MS method, and the residual rate was calculated from the ratio of the peak areas of the test compound to the internal standard in the time point sample and the 0 h sample.
(§4) Experimental results: At the concentration level of 1000 ng/mL under the test conditions, the residual rates of the test Compounds were shown in Table 6 below. Table 6. Residual rate% at 37°C for 6 h

The nature of data set [3]: Test of stability in plasma, dog. In kind it is in vitro ADME. To be noted: read-out: Residual rate% at 37°C for 6 h. The procedure: as §1, §2, §3, §4
Data set [4] is described as follows: Test of stability in plasma, rat. Type of data set: in vitro ADME. To be noted: read-out: Residual rate% at 37°C for 6 h. The procedure: as §1, §2, §3, §4
Data set [5] is described as follows: Test of stability in gastrointestinal fluid: simulated gastric fluid (pepsin). Type of data set: in vitro ADME. To be noted: 0.5 mg/ml, 37°C. The procedure:
6. Test of stability in gastrointestinal fluid
1.1. Preparation of dilute hydrochloric acid: 23.4 ml of hydrochloric acid was diluted with water to 1000 ml.
1.2. Preparation of simulated gastric fluid: 1.64 ml of dilute hydrochloric acid and 1 g of pepsin were added to about 80 ml of water. After being shaken well, the mixture was diluted with water to 100 ml.
About 12.5 mg of the sample was added to a 25 ml volumetric flask and dissolved in the simulated gastric fluid (or simulated intestinal fluid), and the mixture was diluted to the mark.
Instrument model: Agilent 1260 Infinity; mobile phase A: 10 mmol/L K2HPO4, and mobile phase B: acetonitrile; column: Phenomenex Gemini^@ 3 um C18 110Å 150 * 4.6 mm; wavelength: 224 nm; column temperature: 30°C; sample tray temperature: 37°C; injection time: 35 min; injection volume: 10 ul; injection mode: gradient injection; and gradient method. Table 7. Gradient mobile phase
Sampling and testing: Firstly, the blank solution (simulated gastric fluid or simulated intestinal fluid) was tested. Then, the prepared sample (newly prepared for use) was placed in the injection tray for immediate injection. Then, a needle of sample was injected at 4.5 h, 9.5 h, and 18 h, respectively.
Table 8. Stability in gastrointestinal fluid

Positions of bridges follow the written chain, without caps; N, C: chain ends. Non-standard residues stand in square brackets, D forms with d. Residues, ends and D or L forms follow the SMILES beside them. Phe(4-OC2H4NH2,2,3-(CH2)3) = NCCOc1ccc(C[C@H](N)C(=O)O)c2c1CCC2; Trp(7-Me) = Cc1cccc2c(C[C@H](N)C(=O)O)c[nH]c12; 2Nal = N[C@@H](Cc1ccc2ccccc2c1)C(=O)O; 3Pal = N[C@@H](Cc1cccnc1)C(=O)O; Pen = CC(C)(S)[C@H](N)C(=O)O; Thp = NC1(C(=O)O)CCOCC1; Sar = CNCC(=O)O

(Homo sapiens, UniProt Q5VWK5), sequence (Q5VWK5 24-629, other chains not shown): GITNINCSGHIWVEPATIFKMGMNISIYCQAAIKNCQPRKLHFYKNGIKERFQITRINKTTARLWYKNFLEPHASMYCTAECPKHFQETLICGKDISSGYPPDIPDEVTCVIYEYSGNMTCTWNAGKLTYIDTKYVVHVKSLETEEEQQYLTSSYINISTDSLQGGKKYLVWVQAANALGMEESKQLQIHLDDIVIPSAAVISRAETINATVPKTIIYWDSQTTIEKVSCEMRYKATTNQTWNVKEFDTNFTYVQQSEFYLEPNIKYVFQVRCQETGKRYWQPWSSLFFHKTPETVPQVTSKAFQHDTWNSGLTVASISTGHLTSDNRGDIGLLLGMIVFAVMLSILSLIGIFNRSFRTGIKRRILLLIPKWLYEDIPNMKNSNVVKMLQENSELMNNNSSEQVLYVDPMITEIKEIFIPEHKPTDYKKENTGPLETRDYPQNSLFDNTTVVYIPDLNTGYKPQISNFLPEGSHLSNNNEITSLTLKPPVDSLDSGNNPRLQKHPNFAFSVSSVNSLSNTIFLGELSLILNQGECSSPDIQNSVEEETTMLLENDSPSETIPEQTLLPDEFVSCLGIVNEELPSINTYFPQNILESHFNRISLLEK
(Homo sapiens, UniProt Q5VWK5), sequence (Q9NPF7 20-189 partner, other chains not shown): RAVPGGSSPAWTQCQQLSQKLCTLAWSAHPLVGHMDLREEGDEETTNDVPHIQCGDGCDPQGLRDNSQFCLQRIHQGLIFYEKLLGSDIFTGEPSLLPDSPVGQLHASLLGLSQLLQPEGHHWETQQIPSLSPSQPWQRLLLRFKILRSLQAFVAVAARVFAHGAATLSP
(Homo sapiens, UniProt Q5VWK5), sequence (P29460 23-328 partner, other chains not shown): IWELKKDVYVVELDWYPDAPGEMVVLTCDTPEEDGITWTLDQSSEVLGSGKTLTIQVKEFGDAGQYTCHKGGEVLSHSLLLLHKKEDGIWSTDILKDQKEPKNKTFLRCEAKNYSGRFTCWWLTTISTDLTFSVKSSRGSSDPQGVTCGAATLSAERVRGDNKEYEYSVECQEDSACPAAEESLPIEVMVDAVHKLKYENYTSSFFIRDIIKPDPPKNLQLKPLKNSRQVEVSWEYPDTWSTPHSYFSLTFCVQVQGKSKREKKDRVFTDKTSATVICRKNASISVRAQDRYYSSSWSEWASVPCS

For `CC(=O)NCCCC[C@@H]1NC(=O)[C@H](Cc2c[nH]c3c(C)cccc23)NC(=O)[C@H]([C@@H](C)O)NC(=O)[C@H](Cc2c[nH]cn2)NC(=O)[C@@H](NC(C)=O)C(C)(C)SSC(C)(C)[C@@H](C(=O)N[C@@H](Cc2ccc(OCCN)c3c2CCC3)C(=O)N[C@@H](Cc2ccc3ccccc3c2)C(=O)NC2(C(=O)N[C@@H](CCC(=O)O)C(=O)N[C@@H](CC(N)=O)C(=O)N[C@@H](Cc3cccnc3)C(=O)N(C)CC(N)=O)CCOCC2)NC1=O` [Compound 7] (Ac-[Pen]HT[Trp(7-Me)]K(Ac)[Pen][Phe(4-OC2H4NH2,2,3-(CH2)3)][2Nal][Thp]EN[3Pal][Sar]-NH2; disulfide 1-6), the IC50 at IL-23α/IL-12β and IL-23R turned out to be 0.0539 nM; in data set [1] it was 0.0014 nM. In addition, the remaining at 6 h, 1000 ng/mL was above 99% in data set [2], above 99% in data set [3] and 98.3% in data set [4]. The Peak area% is 95.281% in data set [5] (0 h), 94.678% in data set [5] (4.5 h), 96.304% in data set [5] (9.5 h) and 93.661% in data set [5] (18 h).
